From patent US11339169B2, “P2X3 and/or P2X2/3 compounds and methods” (Asana BioSciences, LLC, priority 2016, dated 2022) come the findings set out here.

For one assay, the target named is T1, hP2X3 (Homo sapiens, UniProt P56373).
T1 construct: host or cells: HEK (hP2X3-HEK)
T1 sequence (P56373 1-397): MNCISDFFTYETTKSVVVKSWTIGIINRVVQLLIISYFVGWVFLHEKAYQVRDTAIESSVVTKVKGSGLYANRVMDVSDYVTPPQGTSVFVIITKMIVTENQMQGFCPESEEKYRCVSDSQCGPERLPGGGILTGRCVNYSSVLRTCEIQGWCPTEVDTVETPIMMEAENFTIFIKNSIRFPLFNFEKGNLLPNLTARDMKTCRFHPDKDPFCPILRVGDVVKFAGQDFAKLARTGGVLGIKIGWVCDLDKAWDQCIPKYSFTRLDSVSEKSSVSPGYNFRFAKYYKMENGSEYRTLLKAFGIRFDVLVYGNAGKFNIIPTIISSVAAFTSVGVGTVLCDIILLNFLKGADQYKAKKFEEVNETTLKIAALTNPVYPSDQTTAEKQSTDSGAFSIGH
Briefly: FLIPR intracellular calcium assay, hP2X3. It is filed as cell-based. The following applies: human P2X3-HEK cells, agonist at EC75. The text has this: (§1) The FLIPR® assay utilizes cells which express human or rat P2X3 or P2X2/3 receptors. Recombinant cells expressing hP2X3 (Cat #6188) and hP2X2/3 (Cat #6179) were procured from Chantest Corp. Rat P2X2 (NCBI Accession No: U14414) was amplified by PCR from PC12 cDNA (a rat adrenal medulla cell line). The PCR product obtained containing the protein coding sequence of rat P2X2 was cloned into EcoRV-digested and dephosphorylated vector plRES-puro3 within the multiple cloning site (MCS). See, FIG. 1A.
(§2) (i) Intracellular Calcium Assay Protocol for Screening Compounds
(§3) Cryo-vial containing 6×10^6 cells (human P2X3-HEK/human P2X2/3-TRex293/rat P2X2/3-TRex293/rat P2X3 TRex-CHO) was thawed in a 37° C. water bath. Cells were suspended in 20 mL of respective cell plating media (See annexure for composition) in a 50 mL centrifuge tube. The cell viability was checked with the help of Trypan Blue dye. Upon washing, cells were plated in a black 384-well clear bottomed, sterile poly-D-lysine coated plate such that, each well contained 10,000 cells (15,000/well for hP2X3) in 30 μL cell plating media. The plate was incubated in a 5% CO2 incubator at 37° C. for 24 h.
(§4) The next day, prior to the assay, the cell plating media was removed from each well by decanting and gentle tapping. Thirty μL of FLIPR Calcium 4 dye solution was added to each well. The plate was incubated at 37° C. for 45 min (60 min for hP2X3). The plate was next equilibrated at room temperature for 15 minutes before placing it in a 384 well FLIPR for the assay.
(§5) Compounds were dissolved in DMSO and serially diluted following 11 point half log (3.16 fold) dilution with a starting concentration of 2 mM. Dilutions were mixed with assay buffer just before performing the assay.
(§6) Compounds were added to the respective wells of the assay-ready cell plate with the help of the FLIPR and fluorescence readings were captured for 5 min to observe any possible agonistic property of the compounds. The plate was then incubated at room temperature for 15 min. The cells were stimulated with respective agonist EC75 concentration and the fluorescence readings were captured for another 5 min by FLIPR. The difference in fluorescence readings in presence of the compounds were compared with that of the control wells (wells having no compound) to calculate the inhibitory potency of the compounds. The IC50 values of the compounds were determined using the Graph pad Prism software.
(§7) (ii) Cell Plating Media for hP2X3-HEK and hP2X2/3-TRex293 Cells • DMEM/F12 (1:1) HAM media (Invitrogen; Cat #11039) • 1×NEAA (Invitrogen; Cat #11140) • 25 mM HEPES (Invitrogen; Cat #15630) • 1 mM sodium pyruvate (Invitrogen; Cat #11360) • 10% tetracycline negative FBS (PAA; Cat #A15-209) • 1 μg/mL doxycycline (Clontech; Cat #63131) [for hP2X2/3-TRex293 cells only]
(§8) (v) Assay Buffer Composition • HBSS (Invitrogen Cat #14025) • 20 mM HEPES (Invitrogen Cat #15630) • 0.01% F127 (Sigma Cat #P2443) • 1.8 mM CaCl2 (Sigma Cat #C5080) • pH adjusted to 7.4
(§9) (vi) Dye Solution Composition • 1× FLIPR Calcium 4 dye in assay buffer (Molecular devices Cat #R8141) • 1.8 mM Probenecid (Sigma Cat #P8761) • pH adjusted to 7.4
In general terms: A change in cytosolic calcium serves as a functional read-out for many receptors and channels.

For another assay, the target named is T2, hP2X2/3 (Homo sapiens, UniProt P56373+Q9UBL9).
T2 construct: host or cells: TRex293 (hP2X2/3-TRex293), doxycycline-induced
T2 sequence (P56373 1-397): T1 sequence (P56373 1-397)
T2 sequence (Q9UBL9 1-471): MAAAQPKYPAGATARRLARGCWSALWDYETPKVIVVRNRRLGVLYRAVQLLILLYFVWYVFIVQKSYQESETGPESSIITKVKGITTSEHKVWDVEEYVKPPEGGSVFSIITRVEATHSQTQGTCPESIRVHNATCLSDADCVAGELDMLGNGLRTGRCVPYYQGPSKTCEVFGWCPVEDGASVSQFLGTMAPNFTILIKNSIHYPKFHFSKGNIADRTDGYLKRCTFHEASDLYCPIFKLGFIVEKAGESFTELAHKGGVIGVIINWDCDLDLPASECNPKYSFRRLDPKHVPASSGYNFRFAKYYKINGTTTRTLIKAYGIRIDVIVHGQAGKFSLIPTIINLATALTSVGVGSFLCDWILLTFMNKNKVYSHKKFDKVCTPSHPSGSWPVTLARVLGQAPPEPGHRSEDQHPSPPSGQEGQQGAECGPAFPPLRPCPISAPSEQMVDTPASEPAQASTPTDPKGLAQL
Put plainly: FLIPR intracellular calcium assay, hP2X2/3. It is filed as cell-based. The following applies: human P2X2/3-TRex293 cells, agonist at EC75.
Description: as §1, §2, §3, §4, §5, §6, §7, §8, §9

pIC50: −log10 of the molar value. Where only a bound is given, the exact number is not on record here.

As usually defined, the pIC50 is the IC50 on a negative log10 scale, so that one unit is a factor of ten. Consider “4-{1-sec-Butyl-7-[((R)-cyclopropyl-quinolin-3-yl-methyl)-amino]-1H-pyrazolo[4,3-d]pyrimidin-5-yl}-piperazine-1-sulfonic Acid Amide [Example 109]”, for which, on hP2X3, the pIC50 was 6.00 to 7.00.
Still for that read-out and setting: the same measure for `CCC(C)n1ncc2nc(-n3cnnn3)nc(N[C@@H](c3cnc4ccccc4c3)C3CC3)c21` (single isomer, unassigned) [Example 78]: 6.00 to 7.00.
As for `CCC(C)n1ncc2nc(-n3cnnn3)nc(N[C@@H](c3cnc4ccccc4c3)C3CC3)c21` (single isomer, unassigned) [Example 79], the negative logarithm of the IC50 (pIC50) at hP2X2/3 is 5.00 to 6.00; on hP2X3 it was 6.00 to 7.00.
On to `CC(=O)N1CCN(c2nc(N[C@H](C)c3cnc4ccccc4c3)c3nn(C(C)C)cc3n2)CC1` [Example 1, 1-{4-[2-Isopropyl-7-((R)-1-quinolin-3-yl-ethylamino)-2H-pyrazolo[4,3-d]pyrimidin-5-yl]-piperazin-1-yl}-ethanone], for which the pIC50 at hP2X2/3 was below 5.00; on hP2X3 it was 7.00 to 9.00.
`CC(=O)N1CCN(c2nc(NC(C)c3cnc4ccccc4c3)c3nn(C(C)C)cc3n2)CC1` (stereo not drawn) [Example 2]: on hP2X3, the negative-log IC50 (pIC50) is 6.00 to 7.00.
Turning to `CC(=O)N1CCN(c2nc(NC(C)(C)Cc3ccc(Cl)cc3)c3nn(C(C)C)cc3n2)CC1` [Example 3], the negative logarithm of the IC50 (pIC50) at hP2X2/3 was 5.00 to 6.00; at hP2X3 it was 6.00 to 7.00.
On to `CCC(C)n1cc2nc(N3CCN(C(C)=O)CC3)nc(NC(C)c3cnc4ccccc4c3)c2n1` (stereo not drawn) [Example 4], for which the pIC50 is below 5.00 on hP2X2/3 and 7.00 to 9.00 at hP2X3.
The corresponding values for `CCC(C)n1cc2nc(N3CCN(C(C)=O)CC3)nc(N[C@H](C)c3cnc4ccccc4c3)c2n1` (stereo partly drawn) [Example 5] are below 5.00 and 7.00 to 9.00.
For the compound `CCC(C)n1cc2nc(N3CCN(C(C)=O)CC3)nc(NC(C)(C)Cc3ccc(Cl)cc3)c2n1` (stereo not drawn) [Example 6], the figures for the negative logarithm of the IC50 (pIC50) at hP2X2/3 and at hP2X3 were 5.00 to 6.00 and 6.00 to 7.00, respectively.
As for `CC(=O)N1CCN(c2nc(N[C@H](C)c3cnc4ccccc4c3)c3nn(CC(C)C)cc3n2)CC1` [Example 7], the values for the pIC50 at hP2X2/3 and at hP2X3 were below 5.00 and 6.00 to 7.00, respectively.
On to `CCC(CC)n1cc2nc(N3CCN(C(C)=O)CC3)nc(N[C@H](C)c3cnc4ccccc4c3)c2n1` [Example 8], for which the pIC50 at hP2X3 was 7.00 to 9.00.
On the same count and under the same terms, the same measure for `CC(=O)N1CCN(c2nc(N[C@H](C)c3cnc4ccccc4c3)c3nn(-c4ccccc4)cc3n2)CC1` [Example 9, 1-{4-[2-Phenyl-7-((R)-1-quinolin-3-yl-ethylamino)-2H-pyrazolo[4,3-d]pyrimidin-5-yl]-piperazin-1-yl} ethanone]: 6.00 to 7.00.
`CC(=O)N1CCN(c2nc(NC(C)c3cnc4ccccc4c3)c3c(cnn3C(C)C)n2)CC1` (stereo not drawn) [Example 11]: the negative logarithm of the IC50 (pIC50) at hP2X2/3 is 5.00 to 6.00; on hP2X3 it was 7.00 to 9.00.
For `CC(=O)N1CCN(c2nc(N[C@H](C)c3cnc4ccccc4c3)c3c(cnn3C(C)C)n2)CC1` [Example 12], the negative-log IC50 (pIC50) on hP2X2/3 is 5.00 to 6.00; on hP2X3, 7.00 to 9.00.
`CC(=O)N1CCN(c2nc(NC(C)(C)Cc3ccc(Cl)cc3)c3c(cnn3C(C)C)n2)CC1` [Example 13]: the pIC50 on hP2X2/3 is 5.00 to 6.00; at hP2X3 it was 7.00 to 9.00.
As for `CC(=O)N1CCN(c2nc(NCc3cnc4ccccc4c3)c3c(cnn3C(C)C)n2)CC1` [Example 14], the negative-log IC50 (pIC50) was below 5.00 at hP2X2/3 and 6.00 to 7.00 at hP2X3.
`CC(C)n1ncc2nc(N3CCN(C)C(=O)C3)nc(N[C@H](C)c3cnc4ccccc4c3)c21` [Example 15]: the pIC50 was 5.00 to 6.00 at hP2X2/3 and 7.00 to 9.00 on hP2X3.
As to `CC(=O)N1CCN(c2nc(N[C@@H](C)c3cnc4ccccc4c3)c3c(cnn3C(C)C)n2)CC1` [Example 17], the pIC50 at hP2X3 was 6.00 to 7.00.
On the same count and under the same terms, the same measure for `CCC(C)n1ncc2nc(N3CCN(C)C(=O)C3)nc(N[C@H](C)c3cnc4ccccc4c3)c21` (stereo partly drawn) [Example 20]: 6.00 to 7.00; for `CC(=O)N1CCN(c2nc(N[C@H](C)c3cnc4ccccc4c3)c3c(cnn3CC3CCOCC3)n2)CC1` [Example 26]: 6.00 to 7.00; for `CC(=O)N1CCN(c2nc(N[C@H](C)c3cnc4ccccc4c3)c3c(cnn3C3CCOCC3)n2)CC1` [Example 27]: 7.00 to 9.00.
Take `CCCCCCn1ncc2nc(N3CCN(C(C)=O)CC3)nc(N[C@H](C)c3cnc4ccccc4c3)c21` [Example 28]: the pIC50 on hP2X3 was 6.00 to 7.00.
`CCC(CC)n1ncc2nc(N3CCN(C(C)=O)CC3)nc(N[C@@H](CC)c3cnc4ccccc4c3)c21` [Example 36]: at hP2X3, the pIC50 was 6.00 to 7.00.
On the same count and under the same terms, the same measure for `CCC(=O)N1CCN(c2nc(N[C@H](C)c3cnc4ccccc4c3)c3c(cnn3C(C)C)n2)CC1` [Example 37]: 7.00 to 9.00.
For the compound `CC(C)n1ncc2nc(N3CCNC(=O)C3)nc(N[C@H](C)c3cnc4ccccc4c3)c21` [Example 41], at hP2X3, the pIC50 was 6.00 to 7.00.
Turning to `CCn1ncc2nc(N3CCN(C(C)=O)CC3)nc(N[C@H](C)c3cnc4ccccc4c3)c21` [Example 50], on hP2X3, the pIC50 was 6.00 to 7.00.
Turning to `CCC(C)n1ncc2nc(N3CCN(C(C)=O)CC3)nc(NC(C)c3ccc(-c4ccccn4)cc3)c21` (stereo not drawn) [Example 53], the pIC50 on hP2X3 is 6.00 to 7.00.
Regarding `CCC(CC)n1ncc2nc(N3CCN(C(C)=O)CC3)nc(N[C@@H](C)c3cnc4ccc(F)cc4c3)c21` [Example 54], the pIC50 at hP2X3 is 6.00 to 7.00.
On to `CCC(CC)n1ncc2nc(N3CCN(C(C)=O)CC3)nc(NC(c3ccc(OCC4CC4)nc3)C3CC3)c21` (stereo not drawn) [Example 63], for which the negative-log IC50 (pIC50) on hP2X3 is 6.00 to 7.00.
As to `CC[C@H](C)n1ncc2nc(N3CCN(C(N)=O)CC3)nc(NC(c3ccc4nccn4c3)C3CC3)c21` (stereo partly drawn) [Example 67], the pIC50 at hP2X3 was 6.00 to 7.00.
With `CC[C@H](C)n1ncc2nc(N3CCN(C(N)=O)CC3)nc(NC(C)c3n[nH]c4ccccc34)c21` (stereo partly drawn) [Example 71], the negative-log IC50 (pIC50) on hP2X3 is 6.00 to 7.00.
As for `CC[C@H](C)n1ncc2nc(N3CCN(C(N)=O)CC3)nc(NC(C)c3cc4ccccn4n3)c21` (stereo partly drawn) [Example 73], on hP2X3, the pIC50 was 6.00 to 7.00.
In the case of `CC(=O)N1CCN(c2nc(NC(C)c3cnc4ccccc4c3)c3nn(C(C)C)c(C(N)=O)c3n2)CC1` (stereo not drawn) [Example 95], the pIC50 at hP2X3 was 6.00 to 7.00.
On the same count and under the same terms, the same measure for `CC(=O)N1CCN(c2nc(NC(C)(C)Cc3ccc(Cl)cc3)c3nn(C(C)C)c(Br)c3n2)CC1` [Example 97]: 7.00 to 9.00.
Consider `CC(=O)N1CCN(c2nc(N[C@H](C)c3cnc4ccccc4c3)c3nn(C(C)C)c(C4CC4)c3n2)CC1` [Example 107], for which the pIC50 on hP2X3 is 7.00 to 9.00.
On the same count and under the same terms, the same measure for `CCC(C)n1ncc2nc(-c3cnn(CC(N)=O)c3)nc(N[C@@H](c3cnc4ccccc4c3)C3CC3)c21` (stereo partly drawn) [Example 120]: 6.00 to 7.00.
